Measurements: EP4667464A1 (Cyrus Therapeutics Inc., priority 2023, dated 2024)
Like-named read-outs stand apart in the source and are kept apart here.

Assays:
[1] = system: lung cancer cell line NCI-H358 having the KRAS G12C variant; assay: Cancer cell growth inhibition, 3D spheroids (CellTiter-Glo 3D); format: cell-based; details: Homo sapiens, NCI-H358, 120 h; 3D spheroids, 0.002-10 µM, 5 days; read-out: H358 cell viability
Method: Thereafter, the plate with the cells cultured was adapted to room temperature for 10 minutes, and then 50 µL of CellTiter-Glo® 3D Cell Viability Assay (PROMEGA, G9683) solution was dispensed, and reacted on a horizontal stirrer at a speed of 300 RPM for 30 minutes to induce the cell lysis. […] Thereafter, based on the measured values, the degree of cell growth in the well treated with each compound was calculated when the final cell density value of the well not treated with the test substance was set to 100%.

KRAS G12C::SOS1 = target: T1, KRAS G12C::SOS1 (Homo sapiens, UniProt Q07889); assay: KRAS G12C::SOS1 protein-protein interaction (PPI) inhibition assay (HTRF); format: binding
T1 construct: purchased CISBIO 64KRASG12PEH
T1 sequence (Q07889 1-1333): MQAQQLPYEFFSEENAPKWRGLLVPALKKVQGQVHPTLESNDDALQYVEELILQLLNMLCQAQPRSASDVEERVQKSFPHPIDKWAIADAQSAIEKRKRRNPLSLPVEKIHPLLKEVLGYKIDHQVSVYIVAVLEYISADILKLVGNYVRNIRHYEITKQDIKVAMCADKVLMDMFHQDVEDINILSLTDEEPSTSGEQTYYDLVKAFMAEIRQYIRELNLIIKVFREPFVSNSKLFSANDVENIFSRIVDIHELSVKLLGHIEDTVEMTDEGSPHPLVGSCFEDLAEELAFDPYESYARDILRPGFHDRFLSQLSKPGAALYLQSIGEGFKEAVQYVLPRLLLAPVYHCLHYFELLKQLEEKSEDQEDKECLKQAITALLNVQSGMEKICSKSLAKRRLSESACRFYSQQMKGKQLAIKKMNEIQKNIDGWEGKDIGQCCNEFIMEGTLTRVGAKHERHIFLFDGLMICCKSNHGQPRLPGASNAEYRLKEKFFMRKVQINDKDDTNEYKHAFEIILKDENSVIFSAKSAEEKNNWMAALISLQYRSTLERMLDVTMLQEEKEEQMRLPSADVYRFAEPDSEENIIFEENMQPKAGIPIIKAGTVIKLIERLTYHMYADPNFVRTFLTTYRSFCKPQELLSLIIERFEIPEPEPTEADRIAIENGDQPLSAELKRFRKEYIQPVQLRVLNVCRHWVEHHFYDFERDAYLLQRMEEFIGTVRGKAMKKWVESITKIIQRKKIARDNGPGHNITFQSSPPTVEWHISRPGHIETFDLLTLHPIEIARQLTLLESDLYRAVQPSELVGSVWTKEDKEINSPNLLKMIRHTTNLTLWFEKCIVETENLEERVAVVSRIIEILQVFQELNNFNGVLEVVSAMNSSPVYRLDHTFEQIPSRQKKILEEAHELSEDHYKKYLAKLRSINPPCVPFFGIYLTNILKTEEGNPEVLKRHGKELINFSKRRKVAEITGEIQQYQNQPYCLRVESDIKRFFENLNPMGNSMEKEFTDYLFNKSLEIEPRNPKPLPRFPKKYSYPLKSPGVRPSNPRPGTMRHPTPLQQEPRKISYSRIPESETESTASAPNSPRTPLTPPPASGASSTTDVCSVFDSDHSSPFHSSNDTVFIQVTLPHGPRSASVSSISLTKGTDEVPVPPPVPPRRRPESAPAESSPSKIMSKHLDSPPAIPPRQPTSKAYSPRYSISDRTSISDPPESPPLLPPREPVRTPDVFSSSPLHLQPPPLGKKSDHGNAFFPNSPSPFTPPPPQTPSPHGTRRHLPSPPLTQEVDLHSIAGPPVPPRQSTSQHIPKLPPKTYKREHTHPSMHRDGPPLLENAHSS
How it was run: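 Compounds, at eight 3-fold dilutions from 3 µM, were mixed with GTP-loaded Tag1-KRAS G12C, Tag2-SOS1 and a terbium-cryptate donor plus XL665 acceptor antibody pair. After 2 h at room temperature, time-resolved FRET reported the KRAS–SOS1 interaction.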

SOS1 = target: T2, SOS1 (Homo sapiens, UniProt Q07889); assay: SOS-catalyzed nucleotide exchange assay (HTRF, SOS1-mediated GTP loading of KRAS G12D); format: biochemical
T2 construct: HIS-SOS1cat (160 nM; Cytoskeleton, US); His (N); purchased Cytoskeleton
T2 sequence (Q07889 564-1049 limits assumed): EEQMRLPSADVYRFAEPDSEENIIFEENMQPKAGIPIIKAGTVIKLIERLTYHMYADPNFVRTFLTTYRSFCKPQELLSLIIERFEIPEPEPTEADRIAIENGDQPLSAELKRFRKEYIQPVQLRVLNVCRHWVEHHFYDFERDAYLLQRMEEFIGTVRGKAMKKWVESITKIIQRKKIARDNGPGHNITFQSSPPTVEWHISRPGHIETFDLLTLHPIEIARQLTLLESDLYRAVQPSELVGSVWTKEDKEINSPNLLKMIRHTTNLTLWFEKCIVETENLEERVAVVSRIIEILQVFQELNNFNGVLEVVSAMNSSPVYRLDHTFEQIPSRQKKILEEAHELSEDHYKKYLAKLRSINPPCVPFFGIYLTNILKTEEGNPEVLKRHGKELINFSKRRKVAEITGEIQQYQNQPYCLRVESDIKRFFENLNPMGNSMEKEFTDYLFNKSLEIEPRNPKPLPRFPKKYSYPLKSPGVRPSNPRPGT

[2] = 8 concentrations from 3 µM, three replicates, read-out: KRAS G12C::SOS1 PPI
[3] = GST-KRAS G12D, HIS-SOS1cat, compound 128 pM to 10 µM, read-out: SOS-catalyzed nucleotide exchange assay

[2H]C([2H])([2H])[C@@]([2H])(NC(=O)c1ccc(=O)n(-c2cncc(-c3cnnn3C)c2)n1)c1cccc(C(F)(F)F)c1F [Example 22, (R)-N-(1-(2-fluoro-3-(trifluoromethyl)phenyl)ethyl-1,2,2,2-tetradeuterio)-1-(5-(1-methyl-1H-1,2,3-triazol-5-yl)pyridin-3-yl)-6-oxo-1,6-dihydropyridazine-3-carboxamide]
IC50 [1]: < 1000 nM

C[C@@H](NC(=O)c1ccc(=O)n(-c2cncc(-c3cnnn3C)n2)c1)c1cccc(C(F)(F)F)c1F [Example 1-48, N-{(R)-1-[2-fluoro-3-(trifluoromethyl)phenyl]ethyl}-1-[6-(1-methyl-1H-1,2,3-triazol-5-yl)pyrazin-2-yl]-6-oxo-1,6-dihydropyridine-3-carboxamide]
IC50 (KRAS G12C::SOS1; [2]): > 150 nM | IC50 (SOS1; [3]): > 150 nM

[2H]C([2H])([2H])[C@@H](NC(=O)c1ccc(=O)n(-c2cncc(-c3cnnn3C([2H])([2H])[2H])c2)n1)c1cccc(C(F)(F)F)c1F [Example 1-36, N-{(R)-1-[2-fluoro-3-(trifluoromethyl)phenyl]-ethyl-(2,2,2-trideuterio)}-1-(5-{1-[trideuteriomethyl]-1H-1,2,3-triazol-5-yl}-3-pyridyl)-6-oxo-1,6-dihydropyridazine-3-carboxamide]
IC50 (KRAS G12C::SOS1; [2]): 50 to 150 nM | IC50 (SOS1; [3]): < 50 nM

C[C@@H](NC(=O)c1ccc(=O)n(-c2cnc(F)c(-c3cnnn3C)c2)n1)c1cccc(C(F)F)c1F [Example 6-1, N-{(1R)-1-(3-(difluoromethyl)-2-fluorophenyl)ethyl}-1-(6-fluoro-5-(1-methyl-1H-1,2,3-triazol-5-yl)pyridin-3-yl)-6-oxo-1,6-dihydropyridazine-3-carboxamide]
IC50 (KRAS G12C::SOS1; [2]): > 150 nM | IC50 (SOS1; [3]): 50 to 150 nM

CCn1nncc1-c1cncc(-n2nc(C(=O)N[C@H](C)c3cccc(C(F)(F)CO)c3F)cc(C)c2=O)c1 [Example 1-13, N-[(1R)-1-[3-(1,1-difluoro-2-hydroxy-ethyl)-2-fluoro-phenyl]ethyl]-1-[5-(3-ethyltriazol-4-yl)-3-pyridyl]-5-methyl-6-oxo-pyridazine-3-carboxamide]
IC50 (KRAS G12C::SOS1; [2]): < 50 nM | IC50 (SOS1; [3]): < 50 nM

C[C@@H](NC(=O)c1ccc(=O)n(-c2cncc(-c3cnnn3[C@@H]3CC3(F)F)c2)n1)c1cccc(C(F)(F)F)c1F [Example 24, 1-[5-[3-[(1R)-2,2-difluorocyclopropyl]triazol-4-yl]-3-pyridyl]-N-[(1R)-1-[2-fluoro-3-(trifluoromethyl)phenyl]ethyl]-6-oxo-pyridazine-3-carboxamide]
IC50 (KRAS G12C::SOS1): > 150 nM | IC50 (SOS1): 50 to 150 nM

C[C@@H](NC(=O)c1cc(Cl)c(=O)n(-c2cncc(-c3c(Cl)nnn3C)c2)n1)c1cccc(C(F)F)c1F [Example 12, N-{(R)-1-[3-(difluoromethyl)-2-fluorophenyl]ethyl}-5-chloro-1-[5-(4-chloro-1-methyl-1H-1,2,3-triazol-5-yl)-3-pyridyl]-6-oxo-1,6-dihydropyridazine-3-carboxamide]
IC50 (KRAS G12C::SOS1; [2]): > 150 nM | IC50 (SOS1; [3]): 50 to 150 nM

[2H]C([2H])(O)C(F)(F)c1cccc([C@@H](C)NC(=O)c2ccc(=O)n(-c3cncc(-c4cnnn4C4CNC4)c3)n2)c1F [Example 20-3, (R)-1-(5-(1-(azetidin-3-yl)-1H-1,2,3-triazol-5-yl)pyridin-3-yl)-N-(1-(3-(1,1-difluoro-2-hydroxyethyl-2,2-dideuterio)-2-fluorophenyl)ethyl)-6-oxo-1,6-dihydropyridazine-3-carboxamide]
IC50 (KRAS G12C::SOS1): < 50 nM | IC50 (SOS1): < 50 nM

C[C@@H](NC(=O)c1ccc(=O)n(-c2cncc(-c3cnnn3C)c2)n1)c1cccc(C(F)(F)CF)c1F [Example 1-8, (R)-N-(1-(2-fluoro-3-(1,1,2-trifluoroethyl)phenyl)ethyl)-1-(5-(1-methyl-1H-1,2,3-triazol-5-yl)pyridin-3-yl)-6-oxo-1,6-dihydropyridazine-3-carboxamide]
IC50 (KRAS G12C::SOS1; [2]): 50 to 150 nM | IC50 (SOS1; [3]): < 50 nM

C[C@@H](NC(=O)c1ccc(=O)n(-c2cncc(-c3cnnn3C3CC3)c2)c1)c1cccc(C(F)(F)F)c1F [Example 1-68, 1-[5-(1-cyclopropyl-1H-1,2,3-triazol-5-yl)-3-pyridyl]-N-[(1R)-1-[2-fluoro-3-(trifluoromethyl)phenyl]ethyl]-2-oxo-2H-[1,3'-bipyridine]-5-carboxamide]
IC50 (KRAS G12C::SOS1; [2]): < 50 nM | IC50 (SOS1; [3]): < 50 nM

CC(=O)N1CC(n2nncc2-c2cncc(-n3nc(C(=O)N[C@H](C)c4cccc(C(F)(F)F)c4F)ccc3=O)c2)C1 [Example 20-10, (R)-1-(5-(1-(1-acetylazetidin-3-yl)-1H-1,2,3-triazol-5-yl)pyridin-3-yl)-N-(1-(2-fluoro-3-(trifluoromethyl)phenyl)ethyl)-6-oxo-1,6-dihydropyridazine-3-carboxamide]
IC50 (KRAS G12C::SOS1; [2]): < 50 nM | IC50 (SOS1; [3]): < 50 nM

[2H]C([2H])([2H])n1nncc1-c1cncc(-n2nc(C(=O)N[C@H](C)c3cccc(C(F)(F)F)c3F)ccc2=O)c1 [Example 1-5, N-[(1R)-1-[2-fluoro-3-(trifluoromethyl)phenyl]ethyl]-6-oxo-1-[5-[3-(trideuteriomethyl)triazol-4-yl]-3-pyridyl]pyridazine-3-carboxamide]
IC50 [1]: < 1000 nM

C[C@@H](NC(=O)c1cc(C#N)c(=O)n(-c2cncc(-c3cnnn3C)c2)n1)c1cccc(C(F)F)c1F [Example 3-1, 5-cyano-N-[(1R)-1-[3-(difluoromethyl)-2-fluorophenyl]ethyl]-1-[5-(1-methyl-1H-1,2,3-triazol-5-yl)pyridin-3-yl]-6-oxo-1,6-dihydropyridazine-3-carboxamide]
IC50 (KRAS G12C::SOS1; [2]): > 150 nM | IC50 (SOS1; [3]): 50 to 150 nM

CCc1cc(C(=O)N[C@H](C)c2cccc(C(F)(F)CO)c2F)nn(-c2cncc(-c3cnnn3C(C)C)c2)c1=O [Example 1-41, N-{(R)-1-[3-(1,1-difluoro-2-hydroxyethyl)-2-fluorophenyl]ethyl}-5-ethyl-1-[5-(1-isopropyl-1H-1,2,3-triazol-5-yl)-3-pyridyl]-6-oxo-1,6-dihydropyridazine-3-carboxamide]
IC50 (KRAS G12C::SOS1; [2]): < 50 nM | IC50 (SOS1; [3]): < 50 nM

C[C@@H](NC(=O)c1ccc(=O)n(-c2cncc(-c3cnnn3C3CC3)c2)n1)c1cccc(C(F)F)c1F [Example 1-51, N-[(1R)-1-[3-(difluoromethyl)-2-fluorophenyl]ethyl]-1-[5-(1-cyclopropyl-1H-1,2,3-triazol-5-yl)-3-pyridyl]-6-oxo-pyridazine-3-carboxamide]
IC50 (KRAS G12C::SOS1; [2]): 50 to 150 nM | IC50 (SOS1; [3]): < 50 nM
